Measured values published in US20180036433A1, “COMPOUNDS FOR THE DIAGNOSIS OR TREATMENT OF DISORDERS ASSOCIATED WITH PROTEIN OR PEPTIDE OLIGOMERS” (Agency for Science, Technology and Research, priority 2014, published 2018).

Experiments:
[1] = target: monomers, oligomers and fibrils of Aβ (synthetic Aβ1-40) (Homo sapiens, UniProt P05067); test: Fluorescence response to pre-formed Aβ monomers, oligomers and fibrils; assay type: binding; details: dye 5 μM, Aβ 20 μM
[2] = target: Aβ1-40 on-fibril pathway oligomers (Homo sapiens, UniProt P05067); test: Time-dependent Aβ fibril formation monitored by dye fluorescence; assay type: binding; details: dye 5 μM, Aβ 20 μM, 37° C.
Sequence of Aβ1-40 on-fibril pathway oligomers (P05067 672-711): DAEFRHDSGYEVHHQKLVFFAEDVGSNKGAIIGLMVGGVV

Sequence of monomers, oligomers and fibrils of Aβ (synthetic Aβ1-40) (P05067 672-711): as above

Structure (SMILES): Cc1ccc2c(c1)sc(-c1ccc(N(C)C)cc1)[n+]2C.[Cl-] [ThT, Thioflavin T]
- fluorescence response to Aβ monomers, oligomers and fibrils [1]: fluorescence response in the increasing order of freshly prepared Aβ monomers, followed by oligomer and fibrils
- fluorescence over the time course of Aβ fibril formation [2]: reached a maximum fluorescence after about 1-day and plateaus
